SMILES strings stand for the structures.

The source of these data is patent US9791447B2, “Methods of identifying SENP1 inhibitors” (City of Hope, priority 2013, dated 2017).

In one assay the target is SENP7 (Homo sapiens (Human), UniProt Q9BQF6). The experiment in a line: DUB-Glo bioluminescent assay, SENP7. The following applies: DUB-Glo substrate. It counts as biochemical.
In assay [1] the target is T1, SENP2 (Homo sapiens (Human), UniProt Q9HC62). Nature of the assay: DUB-Glo bioluminescent assay, SENP2. It counts as biochemical. Particulars: DUB-Glo substrate.
T1 sequence (Q9HC62 364-589): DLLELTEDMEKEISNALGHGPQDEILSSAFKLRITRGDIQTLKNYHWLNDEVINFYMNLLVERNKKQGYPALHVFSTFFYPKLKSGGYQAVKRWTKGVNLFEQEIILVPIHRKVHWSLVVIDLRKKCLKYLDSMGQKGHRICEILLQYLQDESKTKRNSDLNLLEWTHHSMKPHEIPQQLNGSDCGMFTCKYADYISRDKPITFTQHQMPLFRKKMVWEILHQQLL
Method: (§1) In 96-well plates, SENPs (50-200 nM) were pre-treated with increasing concentrations of each compound, after which DUB-Glo (40 μM final concentration; Promega, Madison, Wis.) was added as substrate. Experiments were performed in triplicate. The amount of cleaved product is proportional to the relative light unit (RLU), which is bioluminescence produced by luciferase catalyzed reaction of luciferin that was produced by SENP cleavage of DUB-Glo.
(§2) To determine whether other SENPs can be inhibited by this family of inhibitors, a distant SENP member, SENP7, was tested in parallel with SENP1 and SENP2 using a pentapeptide substrate that contained the Gly-Gly motif and luciferin, known as DUB-Glo (Promega, Madison, Wis.). Cleavage of luciferin by a SENP can be detected by a coupled bioluminescent assay using luciferase. The bioluminescent reporter was chosen instead of a fluorescent reporter to avoid interference by the compounds during detection.
(§3) DUB-Glo Assay. The luciferase substrate assay (DUB-Glo, Promega, Madison, Wis.) was performed according to the manufacturer's instructions. […] Luciferase output was recorded 30 min after addition of the luciferase substrate. […]
The target of assay [2] is T2, SENP1 (Homo sapiens (Human), UniProt Q9P0U3). The experiment in a line: SUMO cleavage assay (gel-based), SENP1, SUMO-2 precursor YSE substrate. It counts as biochemical.
T2 sequence (Q9P0U3 419-644): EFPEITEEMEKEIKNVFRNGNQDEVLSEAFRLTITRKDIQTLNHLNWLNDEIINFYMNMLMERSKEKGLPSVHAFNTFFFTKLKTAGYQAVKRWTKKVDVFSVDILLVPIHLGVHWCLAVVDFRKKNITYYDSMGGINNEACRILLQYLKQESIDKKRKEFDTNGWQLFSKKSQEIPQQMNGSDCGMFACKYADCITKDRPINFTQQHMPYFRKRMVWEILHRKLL
Assay [3] addresses T2, SENP1. The experiment in a line: DUB-Glo bioluminescent assay, SENP1. Particulars: DUB-Glo substrate. It counts as biochemical.
Method: as §1, §2, §3
Assay [4] has as its target T1, SENP2. The experiment in a line: SUMO cleavage assay (gel-based), SENP2, SUMO-1 precursor YSE substrate. In kind it is biochemical. The following applies: cleavage of SUMO-1 precursor (YSE), read-out: IC50 (μM)-SUMO1 SENP2.
Assay [5] deals with T1, SENP2. Nature of the assay: SUMO cleavage assay (gel-based), SENP2, SUMO-2 precursor YSE substrate. The following applies: cleavage of SUMO-2 precursor (YSE), read-out: IC50 (μM)-SUMO2 SENP2. In kind it is biochemical.
Assay [6] concerns the target T2, SENP1. Nature of the assay: SUMO cleavage assay (gel-based), SENP1, SUMO-1 precursor YSE substrate. The following applies: cleavage of SUMO-1 precursor (YSE), read-out: IC50 (μM)-SUMO1 SENP1. It counts as biochemical.
The test system of the next assay is HeLa cells. The experiment in a line: Cellular SENP inhibition: SUMOylated proteins in HeLa cells by Western blot. Particulars: increasing concentrations, 48 hours. In general terms: A western blot detects proteins with antibodies after separation by electrophoresis.

Sequence of SENP7 (Q9BQF6 760-1050): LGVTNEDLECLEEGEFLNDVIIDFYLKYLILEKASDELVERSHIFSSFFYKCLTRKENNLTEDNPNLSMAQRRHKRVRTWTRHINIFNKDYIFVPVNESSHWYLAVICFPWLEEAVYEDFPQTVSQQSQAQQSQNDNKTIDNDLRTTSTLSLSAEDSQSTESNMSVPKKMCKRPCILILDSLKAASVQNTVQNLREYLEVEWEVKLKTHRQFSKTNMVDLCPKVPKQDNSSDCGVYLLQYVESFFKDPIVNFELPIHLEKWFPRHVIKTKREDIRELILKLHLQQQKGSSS
Method for SENP7: as §1, §2
DUB-Glo Assay. The luciferase substrate assay (DUB-Glo, Promega, Madison, Wis.) was performed according to the manufacturer's instructions. Briefly, SENPs (final concentration 50-100 nM) in Tris buffer (50 mM Tris, pH 8.0, 100 mM NaCl, 10 mM DTT) were pre-incubated (10 min, room temperature) with increasing concentrations of inhibitor (0-60 μM final concentration) followed by addition of the luciferase substrate. Luciferase output was recorded 30 min after addition of the luciferase substrate. Values are the averages of experiments performed in triplicate.

Usually IC50 stands for the concentration that gives 50% inhibition. For the molecule `Nc1ccc2cc(S(=O)(=O)O)cc(S(=O)(=O)O)c2c1/N=N/c1ccc(S(=O)(=O)O)cc1` [SPI-09], at SENP7, the IC50 came to 1.9 ± 2.1 µM.
The same measure, in the same setting: the result for `Nc1c(/N=N/c2ccccc2)cc(S(=O)(=O)O)c2ccccc12` [SPI-08] reads 2.8 ± 1.6 µM.
`Cc1cc(N)ccc1/N=N/c1cc(S(=O)(=O)O)c2cccc(S(=O)(=O)O)c2c1.[Na+].[Na+]` [SPI-07]: the IC50 is > 60 µM at SENP2 [1]; 17.5 ± 4.9 µM on SENP1 [2] (cleavage of SUMO-2 precursor (YSE), gel-based, read-out: IC50 (μM)-SUMO2 SENP1); > 60 µM against SENP1 [3]; > 60 µM at SENP2 [4]; 28.1 ± 9.2 µM at SENP2 [5]; 1.9 ± 2.2 µM on SENP7. Besides, at SENP1 [6], the IC50 is > 60 µM. Besides, the “potency for inhibiting SENP1 compared with SENP2” value at SENP1 [2] (cleavage of the SUMO-2 precursor) was “more potent for inhibiting SENP1 than SENP2”.
Consider `Nc1ccc2ccccc2c1/N=N/c1ccc(/C=C/c2ccc(/N=N/c3c(N)ccc4ccccc34)cc2S(=O)(=O)O)c(S(=O)(=O)O)c1` [SPI-01], for which, in the assay on HeLa cells, the “accumulation of SUMO-1 conjugates” value is on record as “less significant effects on the accumulation of SUMO-1 conjugates” and the “accumulation of SUMO-2/3 conjugates” value is reported as “SUMO-2/3 conjugates accumulated in cells”.
